Test results taken from PubChem BioAssay AID2009 (NMMLSC, 2009).
Activity calls are given as the source filed them.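 How the source made its calls: active means EC50 of 30 microM or lower and a span of response of at least a set limit; inactive means the rest.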

Molecular target: Cdc42 activated mutant (human), GST fusion
Assay: activated mutant Cdc42 GTP-binding inhibitors, SAR follow-up, biochemical, oxadiazole analogs, multiplex bead flow cytometry, Ki (AID 2009)
Settings: Bead-based flow cytometry, Bodipy-FL-GTP binding; for Ki: measured here: Ki calculated from EC50

SMILES	EC50	Ki
COc1ccc(-c2noc(CCC(=O)N3CCC(c4cc(C)ccc4C)CC3)n2)cc1	1630 nM	250 nM
Cc1ccc(C)c(N2CCN(C(=O)CCc3nc(-c4cccc(Cl)c4)no3)CC2)c1	3910 nM	600 nM
COc1ccc(-c2ccc(CCC(=O)N3CCN(c4cc(C)ccc4C)CC3)[nH]2)cc1	> 30000 nM (inactive)	
COc1ccc(-c2noc(CCC(=O)N3CCN(c4ccc(F)cc4)CC3)n2)cc1	inactive	140 nM
Cc1cccc(-c2noc(CCC(=O)N3CCN(c4cc(C)ccc4C)CC3)n2)c1	1850 nM	290 nM
COc1ccc(-c2noc(CCCCC(=O)N3CCN(c4cc(C)ccc4C)CC3)n2)cc1	17400 nM	2690 nM
Cc1ccc(C)c(N2CCN(C(=O)CCc3nc(-c4ccccc4Br)no3)CC2)c1	1190 nM	180 nM
COc1ccc(-c2noc(CCC(=O)N3CCN(c4cccc(Cl)c4)CC3)n2)cc1	7130 nM	1100 nM
Cc1ccc(C)c(N2CCN(C(=O)CCc3nc(-c4cccc(C(F)(F)F)c4)no3)CC2)c1	2670 nM	410 nM
COc1ccc(-c2noc(CCCC(=O)N3CCN(c4cc(C)ccc4C)CC3)n2)cc1	5160 nM	800 nM
COc1ccc(-c2cc(CCC(=O)N3CCN(c4cc(C)ccc4C)CC3)[nH]n2)cc1	> 30000 nM (inactive)	
COc1ccc(-c2coc(CCC(=O)N3CCN(c4cc(C)ccc4C)CC3)n2)cc1	1680 nM	260 nM
COc1ccc(-c2noc(CCC(=O)N3CCN(c4cccc(C)c4)CC3)n2)cc1	2340 nM	360 nM
Cc1ccc(C)c(N2CCN(C(=O)CCc3nc(-c4ccccc4)no3)CC2)c1	621 nM	100 nM
COc1ccc(-c2noc(CCC(=O)N3CCN(c4ccc(C(F)(F)F)cc4)CC3)n2)cc1	> 30000 nM (inactive)	
COc1ccc(-c2noc(CCC(=O)N3CCN(c4ccc(Cl)cc4)CC3)n2)cc1	inactive	20 nM
COc1ccc(-c2noc(CCC(=O)N3CCN(c4cccc(C(F)(F)F)c4)CC3)n2)cc1	> 30000 nM (inactive)	
COc1ccc(-c2noc(CCC(=O)N3CCN(c4ccc(OC)cc4)CC3)n2)cc1	700 nM	110 nM
Cc1ccc(C)c(N2CCN(C(=O)CCc3nc(-c4ccc(C(F)(F)F)cc4)no3)CC2)c1	4980 nM	770 nM
Cc1ccc(C)c(N2CCN(C(=O)CCc3nc(-c4ccccc4F)no3)CC2)c1	1510 nM	230 nM
Cc1ccc(C)c(N2CCN(C(=O)CCc3nc(-c4cccc(Br)c4)no3)CC2)c1	2340 nM	360 nM
COc1ccccc1-c1noc(CCC(=O)N2CCN(c3cc(C)ccc3C)CC2)n1	4910 nM	760 nM
Cc1ccc(C)c(N2CCN(C(=O)CCc3nc(-c4ccccc4C)no3)CC2)c1	1540 nM	240 nM
COc1ccc(-c2noc(CCC(=O)N3CCN(c4cccc(F)c4)CC3)n2)cc1	inactive	170 nM
COc1ccc(-c2noc(CCC(=O)N3CCN(c4ccc(Br)cc4)CC3)n2)cc1	> 30000 nM (inactive)	
COc1ccc(-c2noc(CCC(=O)N3CCN(c4cccc(Br)c4)CC3)n2)cc1	> 30000 nM (inactive)	

SMILES	EC50	Ki
Cc1ccc(C)c(N2CCN(C(=O)CCc3nc(-c4ccccc4Cl)no3)CC2)c1	951 nM	150 nM
COc1ccc(-c2noc(CCC(=O)N3CCN(c4ccccc4C)CC3)n2)cc1	1050 nM	160 nM
COc1ccc(-c2noc(CCC(=O)N3CCN(c4ccccc4Cl)CC3)n2)cc1	2030 nM	310 nM
COc1ccc(-c2noc(CCC(=O)N3CCN(c4cc(C)ccc4C)CC3)n2)cc1	2280 nM	350 nM
COc1ccc(-c2noc(CCC(=O)N3CCN(c4ccc(C)cc4)CC3)n2)cc1	inactive	190 nM
COc1cccc(-c2noc(CCC(=O)N3CCN(c4cc(C)ccc4C)CC3)n2)c1	3680 nM	570 nM
COc1ccc(-c2noc(CCC(=O)N3CCN(c4cccc(C)c4C)CC3)n2)cc1	1380 nM	210 nM
COc1ccc(-c2noc(CCC(=O)N3CCN(c4cccc(OC)c4)CC3)n2)cc1	inactive	760 nM
COc1ccc(-c2ccc(CCC(=O)N3CCN(c4cc(C)ccc4C)CC3)o2)cc1	> 30000 nM (inactive)	
Cc1ccc(C)c(N2CCN(C(=O)CCc3nc(-c4ccc(F)cc4)no3)CC2)c1	665 nM	100 nM
COc1ccc(-c2cc(CCC(=O)N3CCN(c4cc(C)ccc4C)CC3)on2)cc1	1450 nM	220 nM
COc1ccc(-c2noc(CCC(=O)N3CCN(c4ccccc4OC)CC3)n2)cc1	3080 nM	480 nM
Cc1ccc(C)c(N2CCN(C(=O)CCc3nc(-c4ccc(Br)cc4)no3)CC2)c1	2660 nM	410 nM
Cc1ccc(C)c(N2CCN(C(=O)CCc3nc(-c4ccccc4C(F)(F)F)no3)CC2)c1	1690 nM	260 nM
Cc1ccc(C)c(N2CCN(C(=O)CCc3nc(-c4ccc(Cl)cc4)no3)CC2)c1	1660 nM	260 nM
Cc1ccc(-c2noc(CCC(=O)N3CCN(c4cc(C)ccc4C)CC3)n2)cc1	3030 nM	470 nM
COc1ccc(-c2cccc(CCC(=O)N3CCN(c4cc(C)ccc4C)CC3)c2)cc1	4050 nM	630 nM
COc1ccc(-c2ccc(CCC(=O)N3CCN(c4cc(C)ccc4C)CC3)s2)cc1	2940 nM	460 nM
COc1ccc(-c2noc(CCC(=O)N3CCN(c4ccccc4)CC3)n2)cc1	inactive	110 nM
COc1ccc(-c2noc(CC(=O)N3CCN(c4cc(C)ccc4C)CC3)n2)cc1	inactive	1770 nM
Cc1ccc(C)c(N2CCN(C(=O)CCc3nc(-c4cccc(F)c4)no3)CC2)c1	1840 nM	280 nM
COc1ccc(-c2noc(CCC(=O)N3CCN(c4ccccc4Br)CC3)n2)cc1	1430 nM	220 nM
COc1ccc(-c2noc(CCC(=O)N3CCN(c4ccccc4F)CC3)n2)cc1	1070 nM	170 nM
Cc1ccc(C)c(N2CCN(C(=O)CCc3nc(-c4ccc(N(C)C)cc4)no3)CC2)c1	1660 nM	260 nM
COc1ccc(-c2noc(CCC(=O)N3CCN(c4ccccc4C(F)(F)F)CC3)n2)cc1	2000 nM	310 nM
